Assay results published in patent US10736927B2, “Pharmaceutical compositions for preventing or treating inflammatory bowel diseases” (INSERM (INSTITUT NATIONAL DE LA SANTE ET DE LA RECHERCHE …, priority 2015, dated 2020).

Legend:
[1] = tested on: Il22, RegIIIγ, RegIIIβ, Il17A transcript expression in colon; experiment: Colon transcript expression by qRT-PCR in DSS-exposed mice treated with Ficz; type: in vivo, mouse
Experimental: (§1) To induce colitis, the mice were administered drinking water supplemented with 2% (w/v) dextran sulfate sodium (DSS; MP Biomedicals, LLC, Aurora, Ohio, USA) for 7 days, and then allowed to recover by drinking unsupplemented water for the next 5 days (FIG. 7 a). 6-formylindolo[3,2-b]carbazole (Ficz) was obtained from Enzo Life Sciences (Lausen, Switzerland) resuspended in dimethyl sulfoxide (DMSO; Sigma-Aldrich) and was administered intraperitoneally 1 day after DSS administration (1 μg/mouse). Controls consisted of mice injected with DMSO vehicle alone. For the antifungal treatment, mice were fed 0.5 mg/ml fluconazole in the drinking water (Sigma-Aldrich) 1 week before DSS administration and every day thereafter, as previously described^18. Body weight, gross blood, and stool consistency were analyzed daily. The severity of colitis was assessed using the disease activity index (DAI) as previously described (6).
Total RNA was isolated from colon samples using an RNeasy Mini Kit (Qiagen, Hilden, Germany), according to the manufacturer's instructions. Quantitative RT-PCR was performed using SuperScript II Reverse Transcriptase (Life Technologies, Saint Aubin, France) and then a Takyon SYBR Green PCR kit (Eurogentec, Liege, Belgium) in a StepOnePlus apparatus (Applied Biosystems, Foster City, Calif., USA) with specific mouse oligonucleotides. We used the 2^−ΔΔCt quantification method with mouse Gapdh as an endogenous control and the WT or MWT group as a calibrator.

[2] = tested on: cytokines secreted by colon explants; experiment: Cytokines secreted by colon explants (ELISA) of DSS-exposed mice treated with Ficz; type: in vivo, mouse
Experimental: as §1
MLNs and spleens were sieved through a 70-μm cell strainer (BD, Le Pont De Claix, France) in complete RPMI 1640 medium (10% heat-inactivated fetal calf serum, 2 mM L-glutamine, 50 IU/ml penicillin, and 50 μg/ml streptomycin; Sigma-Aldrich), and 1×10^6 cells per well were cultured (37° C., 10% CO2) for 48 h with stimulation by phorbol 12-myristate 13-acetate (PMA, 50 ng/ml; Sigma-Aldrich) and ionomycin (1 μM; Sigma-Aldrich). The culture supernatant was frozen at −80° C. until processing. To measure the cytokine levels in the colonic explants, tissues from the medium colon were isolated and rinsed in phosphate buffered saline (PBS; Gibco, Paisley, United Kingdom). The colonic explants were cultured (37° C., 10% CO2) overnight in 24-well tissue culture plates (Costar, Corning, Amsterdam, The Netherlands) in 1 ml of complete RPMI 1640 medium. The culture supernatants were collected and stored at −80° C. until processing. ELISAs were performed on the supernatants to quantify mouse cytokines according to the manufacturer's instructions: IL10, IL17A, and IFNγ (Mabtech, Nacka Strand, Sweden); IL22 (eBioscience, San Diego, Calif., USA); and IL6 (R&D Systems, Minneapolis, Minn., USA). For the colonic explants, cytokine concentrations were normalized according to the dry weight of each colonic explant.

[3] = tested on: DSS-exposed MCard9−/− mice; experiment: DSS-induced colitis with Ficz injection in microbiota-colonized germ-free mice; type: in vivo; details: Ficz 1 μg/mouse i.p. 1 day after DSS; Ficz-treated MCard9−/− mice vs non-treated counterparts during recovery
Experimental: Fresh stool samples from WT or Card9^−/− mice were immediately transferred to an anaerobic chamber, in which the stool samples were suspended and diluted 1:100 in LYHBHI medium (BD Difco, Le Pont De Claix, France) supplemented with cellobiose (1 mg/ml; Sigma-Aldrich, St. Louis, Mo., USA), maltose (1 mg/ml; Sigma-Aldrich), and cysteine (0.5 mg/ml; Sigma-Aldrich). Four- to five-week-old WT germ-free mice were randomly assigned to two groups and inoculated via oral gavage with 400 μl of fecal suspension from the conventional wild-type (MWT) or Card9^−/− (MCard9^−/−) mice and maintained in separated isolators. One aliquot of each fecal suspension was stored at −80° C. […]
To induce colitis, the mice were administered drinking water supplemented with 2% (w/v) dextran sulfate sodium (DSS; MP Biomedicals, LLC, Aurora, Ohio, USA) for 7 days, and then allowed to recover by drinking unsupplemented water for the next 5 days (FIG. 7 a). […] Body weight, gross blood, and stool consistency were analyzed daily. The severity of colitis was assessed using the disease activity index (DAI) as previously described (6).
Colon samples for histological studies were maintained at 4° C. in 4% paraformaldehyde and then embedded in paraffin. […] The number of cleaved caspase-3-positive cells in 100 μm of analyzed colon was counted. Ki67 was quantified as a percentage of the total height of each crypt. […]

[4] = tested on: DSS-exposed MWT and MCard9−/− mice; experiment: DSS-induced colitis with antifungal treatment in MWT and MCard9−/− mice; type: in vivo, mouse; details: fluconazole 0.5 mg/ml in drinking water from 1 week before DSS
Experimental: as §1

[5] = tested on: AhR; experiment: AhR activation luciferase reporter assay in H1L1.1c2 cells; type: cell-based, mouse; details: bacterial culture supernatant, relative to culture media (FIG. 13a)
Experimental: The H1L1.1c2 cell line containing a stably integrated DRE-driven firefly luciferase reporter plasmid pGudLuc1.1 was provided by Michael S. Denison (University of California, Davis, Calif., USA) and has been described previously (47, 48). The cells were seeded in 96-well plates at 7.5×10^4 cells/well in 100 μl of complete DMEM medium (10% heat-inactivated fetal calf serum, 50 IU/ml penicillin, and 50 μg/ml streptomycin; Sigma-Aldrich) and cultured (37° C., 10% CO2) for 24 h prior to treatment. Fresh stools from healthy and IBD patients in remission and from WT, Card9^−/−, MWT, MCard9^−/−, Ido1^−/− and germ-free mice were collected, weighed and stored at −80° C. until processing. The stools were suspended, diluted to 100 mg/ml in PBS, centrifuged (5000 g, 15 min, 4° C.) and filtered (0.2 μm; VWR, Fontenay-sous-Bois, France). Lactobacillus and Bifidobacterium spp. were grown in MRS medium (BD Difco, Le Pont De Claix, France) supplemented with 10% cysteine (Sigma-Aldrich) at 37° C. under respectively aerobic and anaerobic conditions. Allobaculum stercoricanis (DSMZ 13633) was cultivated under the recommended culture condition listed in the DSMZ. Cultured supernatants of these bacteria were stored at −80° C. until processing. […] After adding 100 μl of Promega-stabilized luciferase reagent, the luciferase activity was measured using a luminometer. […]

[6] = tested on: Card9−/−→GF mice; experiment: DSS-induced colitis in Card9−/−→GF mice supplemented with three Lactobacillus strains; type: in vivo; details: antagonist 100 μg/mouse i.p. three times per week, data not shown
Experimental: To induce colitis, mice were administered drinking water supplemented with 2% (wt./vol.) dextran sulfate sodium (DSS; MP Biomedicals, LLC, Aurora, Ohio, USA) for 7 days and were then allowed to recover by drinking unsupplemented water for the next 5 days. The 6-formylindolo(3,2-b)carbazole (Ficz; Enzo Life Sciences, Lausen, Switzerland) and the AHR antagonist CH223191 (AHR; Sigma-Aldrich) were resuspended in dimethyl sulfoxide (DMSO; Sigma-Aldrich) and administered intraperitoneally. Ficz was injected 1 day after DSS administration (1 μg/mouse). For the AHR treatment, WT→GF and Card9−/−→GF mice (4- to 5-week-old females) were treated (100 μg/mouse) three times per week until euthanization. Controls consisted of mice injected with DMSO vehicle alone for the Ficz and AHR treatment groups. […] The resulting sequences were aligned, inspected by eye, and compared with the online tool BLAST. Strains were identified based on the highest hit scores. These strains were deposited in the Collection Nationale de Cultures de Microorganismes (CNCM) of the Institut Pasteur and named L. murinus CNCM I-5020, L. reuteri CNCM I-5022, and L. taiwanensis CNCM I-5019. […] In all treatments, body weight, blood in stool, and stool consistency were analyzed daily. The severity of colitis was assessed using the disease activity index (DAI) as previously described (6).

[7] = defect in MCard9−/− mice, Ficz 1 μg/mouse i.p.
[8] = Ficz-treated vs non-treated MCard9−/− mice

O=Cc1c2c(cc3c1=Nc1ccccc1-3)=Nc1ccccc1-2 [Ficz, 6-formylindolo[3,2-b]carbazole]
Il17 expression ([1]; colon, Ficz treatment): not altered
Il22 colonic expression [1, 7]: rescued
RegIIIβ colonic expression [1, 7]: rescued
RegIIIγ colonic expression [1, 7]: rescued
IFNgamma in the colon [2, 8]: No significant differences
IL6 in the colon [2, 8]: No significant differences
IL10 in the colon [2, 8]: No significant differences
Il17 production ([2]; colon explants cultured 24 h, Ficz treatment): not altered
colitis severity (body weight loss, histology score, colon shortening) [3]: weaker colitis severity

OC(Cn1cncn1)(Cn1cncn1)c1ccc(F)cc1F [antifungal, fluconazole]
colitis phenotype (weight loss and DAI) of MCard9−/− vs MWT mice [4]: did not modify the phenotype

Lactobacillus reuteri
AhR activation by cultured supernatants [5]: strongly activate AhR

Cc1ccccc1N=Nc1ccc(NC(=O)c2ccnn2C)c(C)c1 [AHR antagonist, CH223191]
effects of the three Lactobacillus strains in the presence of an AHR antagonist [6]: abrogated
